Test results taken from patent US20220071932A1, “Compositions and Methods Against Stress-Induced Affective Disorders and Their Associated Symptoms” (The Trustees of Columbia University in the City of New York, priority 2019, published 2022).

System: 129S6/SvEv mice
Assay: Contextual fear conditioning (CFC), 3-shock; freezing
Type: in vivo
Settings: for p, Freezing (%), CFC Re-exposure 2, (R,S)-ketamine vs. FENM / p, Freezing (%), CFC Re-exposure 2, Saline vs. drug: drug 5 min after re-exposure 1; for p, Freezing (%), CFC Re-exposure 2, (R,S)-ketamine vs. FENM: (R,S)-ketamine 30 mg/kg vs. FENM 20 mg/kg
Protocol: A 3-shock CFC paradigm was administered as previously described (45, 46). CFC was conducted in chambers obtained from Med Associates (St. Albans, Vt.), with internal dimensions of approximately 20 cm wide×16 cm deep×20.5 cm high. The chambers had metal walls on each side, clear plastic front and back walls and ceilings, and stainless-steel bars on the floor. A house light (CM1820 bulb, 28v, 100 mA) mounted directly above the chamber provided illumination. Each chamber was located inside a larger, insulated, plastic cabinet that provided protection from outside light and noise. Each cabinet contained a ventilation fan that was operated during the sessions. A paper towel dabbed with lemon solution was placed underneath the chamber floor. Mice were held outside the experimental room in their home cages prior to testing and transported to the conditioning apparatus individually in standard mouse cages Chambers were cleaned with 70% EtOH between each set of mice. Mice were placed into the conditioning chamber and received shocks at 180 s, 240 s, and 300 s (2 s duration, 0.75 mA). Fifteen seconds after the last shock, mice were removed from the chamber. Overall, the training session lasted 317 s. […] All sessions were scored for freezing using FreezeFrame4.

[1] = (R,S)-ketamine (30 mg/kg) vs. FENM (20 mg/kg), FIG. 8D
[2] = (R,S)-ketamine (30 mg/kg) vs. FENM (20 mg/kg), FIG. 8F
[3] = Saline vs. FENM (20 mg/kg), FIG. 8D
[4] = Saline vs. FENM (20 mg/kg), FIG. 8F
[5] = dose (20), drug 5 minutes after stress, FIG. 2C

NC12CC3CC(C1)CC(CCF)(C3)C2 [FENM, 1-amino-3-fluoroethyl-adamantane]
CFC Re-exposure 1, Freezing Min 2 (%), p (Fisher's LSD) [1]: <0.0001
CFC Re-exposure 1, Freezing Min 3 (%), p (Fisher's LSD) [1]: <0.0001
CFC Re-exposure 1, Freezing Min 4 (%), p (Fisher's LSD) [1]: <0.0001
CFC Re-exposure 1, Freezing Min 5 (%), p (Fisher's LSD) [1]: <0.0001
CFC Re-exposure 2, Freezing Min 1 (%), p (Fisher's LSD) [2]: 0.1684
CFC Re-exposure 2, Freezing Min 2 (%), p (Fisher's LSD) [2]: <0.0001
CFC Re-exposure 2, Freezing Min 3 (%), p (Fisher's LSD) [2]: <0.0001
CFC Re-exposure 2, Freezing Min 4 (%), p (Fisher's LSD) [2]: <0.0001
CFC Re-exposure 2, Freezing Min 5 (%), p (Fisher's LSD) [2]: <0.0001
CFC Re-exposure 1, Freezing (%), p (Fisher's LSD) ((R,S)-ketamine (30 mg/kg) vs. FENM (20 mg/kg), after ANOVA, FIG. 8E): <0.0001
CFC Re-exposure 2, Freezing (%), p (Fisher's LSD) ((R,S)-ketamine (30 mg/kg) vs. FENM (20 mg/kg), after ANOVA, FIG. 8G): <0.0001
CFC Re-exposure 1, Freezing (%), p (Fisher's LSD) ((R,S)-ketamine (30 mg/kg) vs. FENM (20 mg/kg), after RMANOVA, FIG. 8D): <0.0001
CFC Re-exposure 2, Freezing (%), p (Fisher's LSD) ((R,S)-ketamine (30 mg/kg) vs. FENM (20 mg/kg), after RMANOVA, FIG. 8F): <0.0001
CFC Training, Freezing, p (Fisher's LSD) ((R,S)-ketamine (30 mg/kg) vs. FENM (20 mg/kg), after RMANOVA, FIG. 8 cohort): 0.0029
Behavior: Fear (Extinction (5 min after re-exposure 1), dose 20 mg/kg): ↓
p, Freezing (%), CFC Re-exposure 2, (R,S)-ketamine vs. FENM (Fisher's LSD after ANOVA, FIG. 4G): 0.0248
p, Freezing (%), CFC Re-exposure 2, Saline vs. drug (Fisher's LSD after ANOVA, FENM 20 mg/kg, (R,S)-ketamine 30 mg/kg, FIG. 4G): 0.0281
p, Freezing (%), CFC Re-exposure 2, (R,S)-ketamine vs. FENM (Fisher's LSD after RMANOVA, FIG. 4F): 0.0248
p, Freezing (%), CFC Re-exposure 2, Saline vs. drug (Fisher's LSD after RMANOVA, FENM 20 mg/kg, ketamine 30 mg/kg, FIG. 4F): 0.0281
p, Freezing (%), CFC Training, Saline vs. drug (Fisher's LSD after RMANOVA, drug 5 min before CFC, (R,S)-ketamine 30 mg/kg, FENM dose lies beyond the rows shown, FIG. 8B): 0.9251
Behavior: Fear (Prophylactic (5 min before stress), dose 20 mg/kg): ↑
Behavior: Fear (Prophylactic (7 days before stress), dose 20 mg/kg): ↓
Behavior: Fear (Prophylactic (7 days before stress), dose 30 mg/kg): ↓
CFC Training, Average Freezing, p (Fisher's LSD) (Saline vs. FENM (20 mg/kg), FIG. 8C): 0.9251
CFC Re-exposure 1, Freezing Min 1 (%), p (Fisher's LSD) [3]: 0.0008
CFC Re-exposure 1, Freezing Min 2 (%), p (Fisher's LSD) [3]: 0.0075
CFC Re-exposure 1, Freezing Min 3 (%), p (Fisher's LSD) [3]: 0.1384
CFC Re-exposure 1, Freezing Min 4 (%), p (Fisher's LSD) [3]: 0.7601
CFC Re-exposure 1, Freezing Min 5 (%), p (Fisher's LSD) [3]: 0.4751
CFC Re-exposure 2, Freezing Min 1 (%), p (Fisher's LSD) [4]: 0.5432
CFC Re-exposure 2, Freezing Min 2 (%), p (Fisher's LSD) [4]: 0.0173
CFC Re-exposure 2, Freezing Min 3 (%), p (Fisher's LSD) [4]: 0.0053
CFC Re-exposure 2, Freezing Min 4 (%), p (Fisher's LSD) [4]: 0.3068
CFC Re-exposure 2, Freezing Min 5 (%), p (Fisher's LSD) [4]: 0.3729
CFC Re-exposure 1, Freezing (%), p (Fisher's LSD) (Saline vs. FENM (20 mg/kg), after ANOVA, FIG. 8E): 0.0665
CFC Re-exposure 2, Freezing (%), p (Fisher's LSD) (Saline vs. FENM (20 mg/kg), after ANOVA, FIG. 8G): 0.0173
CFC Re-exposure 1, Freezing (%), p (Fisher's LSD) (Saline vs. FENM (20 mg/kg), after RMANOVA, FIG. 8D): 0.0665
CFC Re-exposure 2, Freezing (%), p (Fisher's LSD) (Saline vs. FENM (20 mg/kg), after RMANOVA, FIG. 8F): 0.0173
p, Fisher's PLSD Saline vs. drug, CFC Re-exposure Freezing Min 1 (%) [5]: 0.1072
p, Fisher's PLSD Saline vs. drug, CFC Re-exposure Freezing Min 2 (%) [5]: 0.0080
p, Fisher's PLSD Saline vs. drug, CFC Re-exposure Freezing Min 3 (%) [5]: 0.1619
p, Fisher's PLSD Saline vs. drug, CFC Re-exposure Freezing Min 4 (%) [5]: 0.5390
p, Fisher's PLSD Saline vs. drug, CFC Re-exposure Freezing Min 5 (%) [5]: 0.8801
p, Fisher's PLSD Saline vs. drug, CFC Re-exposure Freezing (%) (dose (20), drug 5 minutes after stress, after RMANOVA, FIG. 2C): 0.1188
behavior during CFC training (one week prior to 3-shock CFC (c-fos / Western blot cohort), (R,S)-ketamine 30 mg/kg, FENM 20 mg/kg, vs saline): did not alter behavior
freezing upon re-exposure (one week prior to 3-shock CFC, re-exposed five days later, (R,S)-ketamine 30 mg/kg, FENM 20 mg/kg, vs saline): significantly reduced freezing
